Measurements reported in PubChem BioAssay AID248 (DTP/NCI, 2004).
“And” between values parts separate entries of the source, which are not always exact repeats. Equal entries are not always repeated. Inconclusive results and toxic doses are left out. Rule as the data show it: active = T/C of 150% or more; inactive = T/C below 125%.

Tested on: L1210 leukemia ip in BDF1 mice, survival T/C
Test: NCI In Vivo Anticancer Drug Screen. Data for tumor model L1210 Leukemia (intraperitoneal) in B6D2F1 (BDF1) mice
Settings: endpoint: mean survival time, higher = longer survival
In short: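 Tumor was transplanted into mice, which were then dosed with test compound or vehicle alone. Survival was recorded for each group, and the treated figure was expressed relative to the control figure.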

[1] = dose: 50.0 mg/kg/injection, schedule: Q01DX001 (ip), vehicle: carboxymethylcellulose (CMC)
[2] = dose: 100.0 mg/kg/injection, schedule: Q01DX001 (ip), vehicle: carboxymethylcellulose (CMC)
[3] = dose: 200.0 mg/kg/injection, schedule: Q01DX001 (ip), vehicle: carboxymethylcellulose (CMC)
[4] = dose: 400.0 mg/kg/injection, schedule: Q01DX001 (ip), vehicle: carboxymethylcellulose (CMC)
[5] = dose: 100.0 mg/kg/injection, schedule: Q01DX001 (ip), vehicle: Klucel (hydroxypropylcellulose) (HPC)
[6] = dose: 100.0 mg/kg/injection, schedule: Q01DX009 (ip), vehicle: Klucel (hydroxypropylcellulose) (HPC)
[7] = dose: 100.0 mg/kg/injection, schedule: Q04DX002 (ip), vehicle: Klucel (hydroxypropylcellulose) (HPC)
[8] = dose: 100.0 mg/kg/injection, schedule: Q04DX003 (ip), vehicle: Klucel (hydroxypropylcellulose) (HPC)
[9] = dose: 200.0 mg/kg/injection, schedule: Q01DX001 (ip), vehicle: Klucel (hydroxypropylcellulose) (HPC)
[10] = dose: 200.0 mg/kg/injection, schedule: Q01DX009 (ip), vehicle: Klucel (hydroxypropylcellulose) (HPC)
[11] = dose: 200.0 mg/kg/injection, schedule: Q04DX002 (ip), vehicle: Klucel (hydroxypropylcellulose) (HPC)
[12] = dose: 200.0 mg/kg/injection, schedule: Q04DX003 (ip), vehicle: Klucel (hydroxypropylcellulose) (HPC)
[13] = dose: 400.0 mg/kg/injection, schedule: Q01DX009 (ip), vehicle: Klucel (hydroxypropylcellulose) (HPC)
[14] = dose: 400.0 mg/kg/injection, schedule: Q04DX002 (ip), vehicle: Klucel (hydroxypropylcellulose) (HPC)
[15] = dose: 400.0 mg/kg/injection, schedule: Q04DX003 (ip), vehicle: Klucel (hydroxypropylcellulose) (HPC)
[16] = dose: 100.0 mg/kg/injection, schedule: Q01DX001 (ip), vehicle: saline
[17] = dose: 400.0 mg/kg/injection, schedule: Q01DX001 (ip), vehicle: saline
[18] = dose: 100.0 mg/kg/injection, schedule: Q01DX009 (ip), vehicle: saline
[19] = dose: 100.0 mg/kg/injection, schedule: Q04DX003 (ip), vehicle: saline with Tween-80
[20] = dose: 200.0 mg/kg/injection, schedule: Q04DX003 (ip), vehicle: saline with Tween-80

Measured: T/C

Cc1c(Cl)cccc1-n1c(C)nc2ccccc2c1=O
inactive: [1] 93 % of control | [2] 98 % of control | [3] 93 % of control | [4] 102 % of control

CCC(=O)C(C)C(=O)Nc1ccccc1 (configuration not stated)
inactive: [2] 102 % of control | [3] 94 % of control | [4] 100 % of control

Cc1cccc(OC(=O)Nc2cccc(Cl)c2)c1C
inactive: [5] 94 % of control | [6] 94 % of control and 100 % of control | [7] 102 % of control and 105 % of control | [8] 101 % of control | [9] 92 % of control | [10] 98 % of control and 100 % of control | [11] 96 % of control and 98 % of control | [12] 97 % of control | dose: 400.0 mg/kg/injection, schedule: Q01DX001 (ip), vehicle: Klucel (hydroxypropylcellulose) (HPC) 92 % of control | [13] 94 % of control and 96 % of control | [14] 107 % of control and 109 % of control | [15] 93 % of control

O=C(O)C(=S)Cc1cn[nH]n1
inactive: [16] 103 % of control | [17] 100 % of control

COC1OC2COC(c3ccccc3)OC2C(NC(C)=O)C1OS(C)(=O)=O (configuration not stated)
inactive: [7] 101 % of control | [11] 101 % of control | [14] 105 % of control

CCCCCCCCCCCCCCCCCC(=O)N/N=C/c1cc(OC)ccc1OC
inactive: [6] 89 % of control | [10] 86 % of control | [13] 96 % of control

COc1ccccc1CN1CCCN(Cc2ccccc2OC)C1c1ccc(N(CCCl)CCCl)cc1Cl
inactive: [1] 95 % of control | [2] 101 % of control | [3] 98 % of control | [4] 95 % of control

CCC(=O)c1ccc(OC(C)=O)cc1
inactive: dose: 222.0 mg/kg/injection, schedule: Q01DX Z (ip), vehicle: carboxymethylcellulose (CMC) 100 % of control | dose: 333.0 mg/kg/injection, schedule: Q01DX Z (ip), vehicle: carboxymethylcellulose (CMC) 118 % of control | dose: 500.0 mg/kg/injection, schedule: Q01DX Z (ip), vehicle: carboxymethylcellulose (CMC) 108 % of control

C=CC(CO)N1CC1 (configuration not stated)
inactive: dose: 25.0 mg/kg/injection, schedule: Q01DX001 (ip), vehicle: carboxymethylcellulose (CMC) 101 % of control | [1] 103 % of control

C=C(C)C(=O)OCC(O)C[N+](C)(C)C (configuration not stated)
inactive: dose: 25.0 mg/kg/injection, schedule: Q01DX009 (ip), vehicle: saline 98 % of control | dose: 50.0 mg/kg/injection, schedule: Q01DX009 (ip), vehicle: saline 101 % of control | dose: 75.0 mg/kg/injection, schedule: Q01DX001 (ip), vehicle: saline 101 % of control | [18] 97 % of control | dose: 150.0 mg/kg/injection, schedule: Q01DX001 (ip), vehicle: saline 98 % of control

CCOC(=O)c1c[nH]c2c(OC)cccc2c1=O
inactive: dose: 100.0 mg/kg/injection, schedule: Q01DX009 (ip), vehicle: saline with Tween-80 102 % of control | [19] 98 % of control | dose: 200.0 mg/kg/injection, schedule: Q01DX009 (ip), vehicle: saline with Tween-80 88 % of control | [20] 98 % of control | dose: 400.0 mg/kg/injection, schedule: Q01DX009 (ip), vehicle: saline with Tween-80 97 % of control | dose: 400.0 mg/kg/injection, schedule: Q04DX003 (ip), vehicle: saline with Tween-80 109 % of control

c1ccc(C2=NC(c3ccccc3)N3CC23c2ccccc2)cc1 (configuration not stated)
inactive: [5] 97 % of control | [9] 94 % of control

O=[N+]([O-])c1ccc(OCc2ccc(Cl)c(S(=O)(=O)F)c2)c(Cl)c1
inactive: dose: 100.0 mg/kg/injection, schedule: Q01DX001 (ip), vehicle: gum acacia 102 % of control | dose: 200.0 mg/kg/injection, schedule: Q01DX001 (ip), vehicle: gum acacia 102 % of control | dose: 400.0 mg/kg/injection, schedule: Q01DX001 (ip), vehicle: gum acacia 98 % of control

CCOC(=O)C(CCc1ccncc1)c1ccccc1 (configuration not stated)
inactive: dose: 111.0 mg/kg/injection, schedule: Q01DX Z (ip), vehicle: methylcellulose (MC) 94 % of control | dose: 166.0 mg/kg/injection, schedule: Q01DX Z (ip), vehicle: methylcellulose (MC) 102 % of control | dose: 250.0 mg/kg/injection, schedule: Q01DX Z (ip), vehicle: methylcellulose (MC) 96 % of control

O=C(OCC(F)(F)C(F)(F)C(F)(F)C(F)F)c1ccccc1C(=O)OCC(F)(F)C(F)(F)C(F)(F)C(F)F
inactive: [1] 91 % of control | [2] 107 % of control | [3] 105 % of control | [4] 94 % of control

CCc1cc2oc(C)c(C)c2c(N=Nc2ccccc2OC)c1O
inactive: [7] 105 % of control | [11] 102 % of control | [14] 102 % of control

CC(=O)OC1CCC2(C)C(=CC(=O)C3=C2CCC2(C)C3CCC2C(C)/C=C/C(C)C(C)C)C1 (configuration not stated)
inactive: [18] 92 % of control | dose: 100.0 mg/kg/injection, schedule: Q04DX003 (ip), vehicle: saline 88 % of control | dose: 200.0 mg/kg/injection, schedule: Q01DX009 (ip), vehicle: saline 95 % of control | dose: 200.0 mg/kg/injection, schedule: Q04DX003 (ip), vehicle: saline 97 % of control | dose: 400.0 mg/kg/injection, schedule: Q01DX009 (ip), vehicle: saline 92 % of control | dose: 400.0 mg/kg/injection, schedule: Q04DX003 (ip), vehicle: saline 91 % of control

CN(N(P(c1ccccc1)c1ccccc1)P(c1ccccc1)c1ccccc1)P(c1ccccc1)c1ccccc1
inactive: dose: 100.0 mg/kg/injection, schedule: Q01DX001 (ip), vehicle: steriod suspending solution 110 % of control | dose: 400.0 mg/kg/injection, schedule: Q01DX001 (ip), vehicle: steriod suspending solution 94 % of control

CCCCCCN(CCCCCC)C(F)(F)C(=O)Nc1ccc(S(=O)(=O)c2ccc(NC(=O)C(F)(F)N(CCCCCC)CCCCCC)cc2)cc1
inactive: dose: 12.5 mg/kg/injection, schedule: Q01DX001 (ip), vehicle: saline 105 % of control | dose: 25.0 mg/kg/injection, schedule: Q01DX001 (ip), vehicle: saline 100 % of control | dose: 50.0 mg/kg/injection, schedule: Q01DX001 (ip), vehicle: saline 107 % of control

CCCCOCN1CCCCC1
inactive: dose: 31.0 mg/kg/injection, schedule: Q01DX Z (ip), vehicle: carboxymethylcellulose (CMC) 95 % of control | dose: 62.5 mg/kg/injection, schedule: Q01DX Z (ip), vehicle: carboxymethylcellulose (CMC) 101 % of control | [19] 111 % of control | dose: 125.0 mg/kg/injection, schedule: Q01DX Z (ip), vehicle: carboxymethylcellulose (CMC) 105 % of control | [20] 102 % of control

Oc1ccc(O)c2[nH]c(-c3ccc(Cl)cc3)cc12
inactive: dose: 25.0 mg/kg/injection, schedule: Q04DX002 (ip), vehicle: Klucel (hydroxypropylcellulose) (HPC) 94 % of control | dose: 50.0 mg/kg/injection, schedule: Q04DX002 (ip), vehicle: Klucel (hydroxypropylcellulose) (HPC) 100 % of control | [7] 100 % of control

C1=C(c2ccccc2)CCC1
inactive: dose: 50.0 mg/kg/injection, schedule: Q01DX009 (ip), vehicle: Klucel (hydroxypropylcellulose) (HPC) 97 % of control | [6] 97 % of control | [8] 97 % of control | [10] 100 % of control | [12] 101 % of control

CC(O)NC(=O)C1CC2c3cccc4[nH]cc(c34)CC2N(C)C1 (configuration not stated)
inactive: [8] 100 % of control | [12] 97 % of control | [15] 105 % of control

CN1CCCC2C3=CC=C4CC(O)CCC4(C)C3CCC21C (configuration not stated)
inactive: dose: 75.0 mg/kg/injection, schedule: Q01DX001 (ip), vehicle: carboxymethylcellulose (CMC) 98 % of control | dose: 150.0 mg/kg/injection, schedule: Q01DX001 (ip), vehicle: carboxymethylcellulose (CMC) 101 % of control

O=c1[nH]cc(B(O)O)c(=O)[nH]1
inactive: [16] 94 % of control | dose: 200.0 mg/kg/injection, schedule: Q01DX001 (ip), vehicle: saline 98 % of control | [17] 98 % of control

O=C(O)/C=C\C(=O)NCC1CCC(CNC(=O)/C=C\C(=O)O)CC1 (configuration not stated)
inactive: [8] 98 % of control | [12] 100 % of control | [15] 102 % of control
